According to patent publication US20080102476A1, “Analyzing Histamine H4 Receptor-Mediated Effects In Whole Blood” (priority 2003, published 2008):

Tests used:
human eosinophils [1] = assay: Eosinophil shape change in human PMNL by flow cytometry (GAFS assay); format: cell-based
Method: PMNL were prepared as described above and cells were resuspended in assay buffer (PBS containing 10 mM Ca^2+ and Mg^2+, 10 mM HEPES, 10 mM glucose, and 0.1% BSA, pH 7.2-7.4). Aliquots of cells (5×10^5 PMNL in 80 μl assay buffer) were pretreated with histamine receptor analogues (diphenhydramine, ranitidine, thioperamide, Compound A or H3 receptor antagonist) for 10 min at room temperature before addition of histamine or chemokines in 1.2-ml polypropylene cluster tubes (Costar, Cambridge, Mass.) in a final volume of 100 μl. The tubes were placed in a 37° C. water bath for 10 min (or as indicated), after which they were transferred to an ice-water bath, and 250 μl of ice-cold fixative (2% paraformaldehyde in PBS) was added to terminate the reaction and to maintain the cell shape change. […] Cell shape change was monitored in forward scatter signals. To identify eosinophils and neutrophils in PMNL, cells were stained on ice for 30 min with saturating concentrations of FITC-conjugated anti-CCR3 or anti-CD16 antibodies, which are specific for eosinophils or neutrophils, respectively. Samples after antibody staining were analyzed in flow cytometry.

human eosinophils [2] = assay: Cell surface expression of adhesion molecules on eosinophils by flow cytometry; format: cell-based
Method: Purified eosinophils were used to study cell surface expression of adhesion molecules. Eosinophils were resuspended in PBS containing 10 mM Ca^2+ and Mg^2+, 10 mM HEPES, 10 mM glucose, and 0.1% BSA, pH 7.2-7.4. Aliquots of cells (5×10^5 PMNL) were pretreated with histamine receptor analogues (as described above) for 10 min before addition of histamine or chemokines in 1.2-ml polypropylene cluster tubes (Costar, Cambridge, Mass.) in a final volume of 100 μl. The tubes were placed in a 37° C. water bath for 10 min (or as indicated), after which they were transferred to an ice-water bath, and 250 μl of ice-cold fixative (0.5% paraformaldehyde in PBS) was added. Samples were then incubated on ice for 30 min with saturating concentration of either FITC or phycoerytherine-conjugated anti-CD11a, anti-CD11b or anti-CD54 antibodies, washed, and then analyzed by flow cytometry.

[3] = tested on: purified human eosinophils; assay: In vitro eosinophil chemotaxis assay (Transwell); format: cell-based
Method: Transwells (Costar, Cambridge, Mass.) with 5 μm pore size were coated with 100 μl of 100 ng/ml human fibronectin (Sigma) for 2 h at room temperature. After removal of excess fibronectin, 600 μl of RPMI-1640 medium containing 0.5% BSA and different concentrations of histamine (0.01-100 μM) was added to the bottom chamber, Eosinophils (2×10^5/well) were added to the top chamber. Histamine receptor analogues (diphenhydramine, ranitidine, thioperamide, Compound A or Compound B) were added to both the top and bottom chambers to a final concentration of 10 μM or at other concentration as stated in figure legends. The plates were incubated for 2 h at 37° C. and the number of cells migrated to the bottom chamber was counted for 1 min using flow cytometer.

[4] = cited from earlier work
human neutrophils = settings: 1 μM, 10 min
Method: Human PMNL samples were used to study eosinophil shape change response. PMNL were prepared as described above and cells were resuspended in assay buffer (PBS containing 10 mM Ca^2+ and Mg^2+, 10 mM HEPES, 10 mM glucose, and 0.1% BSA, pH 7.2-7.4). Aliquots of cells (5×10^5 PMNL in 80 μl assay buffer) were pretreated with histamine receptor analogues (diphenhydramine, ranitidine, thioperamide, Compound A or H3 receptor antagonist) for 10 min at room temperature before addition of histamine or chemokines in 1.2-ml polypropylene cluster tubes (Costar, Cambridge, Mass.) in a final volume of 100 μl. […] The cell shape change was analyzed with the flow cytometer (Becton Dickinson, Mountain View, Calif.). […] Cell shape change was monitored in forward scatter signals. […] Samples after antibody staining were analyzed in flow cytometry.
The analysis of eosinophil cell shape change by flow cytometry, known as gated autofluorescence forward scatter (GAFS) assay, allows a quantitative measurement of cell shape change induced by chemoattractants (Sabroe et al., 1999, “Differential regulation of eosinophil chemokine signaling via CCR3 and non-CCR3 pathways,” J. Immunol., 162, 2946-2955). […]

[5] = tested on: eosinophils in human whole blood; assay: Whole blood eosinophil shape change GAFS assay (Example 1A); format: cell-based
Method: Starting materials were obtained as described in the experiments above. Human whole blood samples were used to study eosinophil shape change response. Human blood samples collected from healthy donors were treated with 3.8% tri-sodium citrate as anti-coagulator (or other anti-coagulators) and centrifuges at 300 rpm. The samples were used for experiments within 1 hour. Aliquots of 80 μl whole blood were pretreated with histamine receptor analogues (such as H1 receptor antagonist diphenhydramine, H2 antagonist ranitidine, H4 receptor antagonists thioperamide and Compound A, and H3 receptor antagonist Compound B) for 10 minutes before addition of histamine or chemokines in 1.2-ml polypropylene cluster tubes (Costar, Cambridge, Mass.) in a final volume of 100 μl. The tubes were placed in a 37° C. water bath for 10 min, after which they were transferred to an ice-water bath, and 250 μl of ice-cold fixative (2% paraformaldehyde in PBS or other fixatives) was added to terminate the reaction and to maintain the cell shape change. Red cells were lysed with 3 ml Qiagen lysis solution (Qiagen, Valencia, Calif.) for 10 minutes at 4° C. Leukocytes were recovered by centrifugation at 2000 rpm for 5 minutes, washed once with either PBS containing 10 mM Ca^2+ and Mg^2+, 10 mM HEPES, 10 mM glucose, and 0.1% BSA (for FIGS. 10 and 11) or PBS containing 0.5% BSA and 2 mM EDTA (for other figures), and then resuspended in the same buffer. The cell shape change was analyzed on a FACScan flow cytometer (Becton Dickinson, Mountain View, Calif.). Eosinophils were gated based on their high autofluorescence relative to neutrophils and shape change was monitored in forward scatter signals. Data were acquired for 1500 high-fluorescence eosinophil events. The results are expressed as the percentage increase in FSC compared to unstimulated cells. Results obtained are provided in the Tables I and II, below, which also correspond to FIG. 7 and FIG. 8, respectively.

[6] = after histamine treatment, FIG. 3A
[7] = histamine 0.1 uM alone, lower part
[8] = histamine 1 uM alone, lower part
[9] = histamine 10 uM alone, lower part

NCCc1c[nH]cn1 [histamine, 4-(2-amino-ethyl)imidazole]
cell shape change on eosinophils (human eosinophils [1]; 1 μM, 10 min): significant cell shape change | eosinophil shape change at 100 μM histamine (human eosinophils [1]; 100 μM): no shape change | earliest time at which eosinophil shape change is detected (human eosinophils [1]; [6]): 1 min | time of maximal eosinophil shape change (human eosinophils [1]; [6]): 5 min | time of return to the original cell shape (human eosinophils [1]; [6]): 40 min | combined effect on eosinophil shape change (human eosinophils [1]; histamine combined with MCP-3, sub-optimal concentrations): Partial additive effects | optimal concentration for maximal shape change on eosinophils (human eosinophils [1]; human PMNL, 10 min): ~1 µM | EC50 (human eosinophils [1]; human PMNL, FIG. 3D): 44 nM | expression of CD11a/CD18 (LFA-1) on eosinophils (human eosinophils [2]): not induced | optimal concentration for maximal up-regulation of CD11b/CD18 and CD54 (human eosinophils [2]; 10-minute stimulation): 10 µM | cell surface expression of CD11b/CD18 (Mac-1) and CD54 (ICAM-1) on eosinophils (human eosinophils [2]; 10 min, 37° C.): induced by histamine in a concentration-dependent manner | persistence of the increase in cell surface adhesion molecules (human eosinophils [2]; 60 minutes incubation): maintained | effect on eosinophil chemotaxis induced by eotaxin-2 and MCP-3 ([3]; 0.5 μM histamine): enhanced | EC50 ([3]; Homo sapiens, Eosinophil, Transwell, 2 h): 83 nM | concentration for maximal chemotactic effect on eosinophils ([3]; Transwell): 1 µM | nature of the effect on eosinophil migration ([3]; disruption of concentration gradient): chemotactic but not chemokinetic | half-life in serum [4]: around 1 min | cell shape change on neutrophils (human neutrophils): no effects | % change (increase in FSC compared to unstimulated cells) ([5]; histamine 0.01 uM, upper part): 6.1% | GeoMean (FSC of eosinophils) ([5]; histamine 0.01 uM, upper part): 239.8 | % change (increase in FSC compared to unstimulated cells) [5, 7]: 20.1% | GeoMean (FSC of eosinophils) [5, 7]: 327.7 | % change (increase in FSC compared to unstimulated cells) ([5]; histamine 0.1 uM, upper part): 20.0% | GeoMean (FSC of eosinophils) ([5]; histamine 0.1 uM, upper part): 271.3 | % change (increase in FSC compared to unstimulated cells) [5, 8]: 18.0% | GeoMean (FSC of eosinophils) [5, 8]: 321.9 | % change (increase in FSC compared to unstimulated cells) ([5]; histamine 1 uM, upper part): 16.4% | GeoMean (FSC of eosinophils) ([5]; histamine 1 uM, upper part): 263.3 | % change (increase in FSC compared to unstimulated cells) [5, 9]: 11.1% | GeoMean (FSC of eosinophils) [5, 9]: 303.3 | % change (increase in FSC compared to unstimulated cells) ([5]; histamine 10 uM, upper part): 17.2% | GeoMean (FSC of eosinophils) ([5]; histamine 10 uM, upper part): 265.0 | % change (increase in FSC compared to unstimulated cells) ([5]; histamine 100 uM, upper part): 30.8% | GeoMean (FSC of eosinophils) ([5]; histamine 100 uM, upper part): 295.8 | concentration at which a significant eosinophil shape change was detected ([5]; whole blood, FIG. 7): ~0.1 µM
